Measured values: ChEMBL document CHEMBL5329213, “Discovery of a novel GPR35 agonist with high and equipotent species potency for oral treatment of IBD” (Bioorg Med Chem, 2023)
The source made the active and inactive calls. The rule behind the calls is not given here.

Assays:
[1] = molecular target: T1, G-protein coupled receptor 35 (Homo sapiens, UniProt Q9HC97); experiment: Agonist activity at human GPR35 expressed in HEK293 cells co-expressing Galpha16 assessed as increase in calcium mobilization by Fluo-4 AM dye based fluorescence assay; type: functional, cell-based
T1 sequence (Q9HC97 whole entry): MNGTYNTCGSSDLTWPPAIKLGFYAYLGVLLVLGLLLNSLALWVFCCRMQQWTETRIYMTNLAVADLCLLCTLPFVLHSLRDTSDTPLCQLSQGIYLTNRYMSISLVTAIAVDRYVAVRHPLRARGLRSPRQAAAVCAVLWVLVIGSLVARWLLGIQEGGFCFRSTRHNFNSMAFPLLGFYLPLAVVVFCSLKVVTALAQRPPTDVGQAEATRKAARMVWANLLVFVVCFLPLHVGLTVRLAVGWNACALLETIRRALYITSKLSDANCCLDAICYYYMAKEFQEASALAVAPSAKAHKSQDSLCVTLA

[2] = molecular target: G-protein coupled receptor 35 (Mus musculus) (UniProt Q9ES90); experiment: Agonist activity at mouse GPR35 expressed in HEK293 cells co-expressing Galpha16 assessed as increase in calcium mobilization by Fluo-4 AM dye based fluorescence assay relative to-iodoxamide; type: functional, cell-based; conditions: filed as agonist
Chain of G-protein coupled receptor 35 (Mus musculus) (Q9ES90 whole entry): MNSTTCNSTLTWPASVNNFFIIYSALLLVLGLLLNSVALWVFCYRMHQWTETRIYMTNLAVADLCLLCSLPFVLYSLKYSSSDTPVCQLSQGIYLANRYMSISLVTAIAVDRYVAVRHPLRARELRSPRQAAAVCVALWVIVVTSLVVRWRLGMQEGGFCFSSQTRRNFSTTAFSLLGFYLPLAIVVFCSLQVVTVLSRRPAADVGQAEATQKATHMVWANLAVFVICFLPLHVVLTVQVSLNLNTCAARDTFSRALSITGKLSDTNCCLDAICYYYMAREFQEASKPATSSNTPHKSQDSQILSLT

[3] = molecular target: T2, G-protein coupled receptor 35 (Mus musculus, UniProt Q9ES90); experiment: Agonist activity at mouse GPR35 expressed in HEK293 cells co-expressing Galpha16 assessed as increase in calcium mobilization by Fluo-4 AM dye based fluorescence assay; type: functional, cell-based
T2 sequence (Q9ES90 whole entry): as above

Mus musculus [4] = experiment: Anti-colitis activity against DSS-induced ulcerative colitis C57BL/6 mouse model assessed as reduction in colitis symptoms by measuring decrease in stool thinning at 200 mg/kg, po qd for 7 days administered via gavage; type: functional, organism-based; conditions: time 7.0 day
Mus musculus [5] = experiment: Anti-colitis activity against DSS-induced ulcerative colitis C57BL/6 mouse model assessed as reduction in colitis symptoms by measuring decrease in body weight loss at 200 mg/kg, po qd for 7 days administered via gavage; type: functional, organism-based; conditions: time 7.0 day
Mus musculus [6] = experiment: Anti-colitis activity against DSS-induced ulcerative colitis C57BL/6 mouse model assessed as reduction in colitis symptoms by measuring decrease in rectal bleeding at 200 mg/kg, po qd for 7 days administered via gavage; type: functional, organism-based; conditions: time 7.0 day
[7] = Agonist activity at rat GPR35 by beta-arrestin recruitment assay
[8] = molecular target: T1, G-protein coupled receptor 35; experiment: Agonist activity at human GPR35 by beta-arrestin recruitment assay; type: functional
[9] = molecular target: T2, G-protein coupled receptor 35; experiment: Agonist activity at mouse GPR35 by beta-arrestin recruitment assay; type: functional
[10] = Agonist activity at rat GPR35 expressed in HEK293 cells co-expressing Galpha16 assessed as increase in calcium mobilization by Fluo-4 AM dye based fluorescence assay
[11] = Stability of the compound in mouse plasma; type: ADME, cell-free
[12] = Stability of the compound in plasma of DSS-induced ulcerative colitis C57BL/6 mouse model at 20 mg/kg, po qd for 7 days administered via gavage; type: ADME, organism-based; conditions: in vivo, 168 h, time 7 day

CCOC(=O)C(=O)Nc1cc(C#N)cc(NC(=O)C(=O)OCC)c1Cl [LODOXAMIDE ETHYL]
EC50 [1]: 29.2 nM
Emax [2]: 139%
EC50 [3]: 263 nM

CCOC(=O)C(=O)Nc1cccc(NC(=O)C(=O)OCC)c1Cl
EC50 [3]: 3260 nM

CCOC(=O)C(=O)Nc1cc(Br)cc(NC(=O)C(=O)OCC)c1Cl
EC50 [3]: 42.5 nM

Nc1ccc(O)c(C(=O)O)c1
Activity (Mus musculus [4]): Active
Activity (Mus musculus [5]): Active
Activity (Mus musculus [6]): Active

O=C1N/C(=N/c2ccccc2F)S/C1=C\c1ccc(C(=O)O)cc1
EC50 [7]: 8000 nM

O=C(O)C(=O)Nc1cccc(NC(=O)C(=O)O)c1Cl
EC50 [3]: 3640 nM

CCCCc1cc2c(=O)cc(C(=O)O)[nH]c2c2c(=O)cc(C(=O)O)[nH]c12 [BUFROLIN]
EC50 [7]: 10 nM

N#Cc1cc(NC(=O)C(=O)O)cc(NC(=O)C(=O)O)c1
EC50 [3]: 376 nM

O=C(O)c1cc(=O)c2c(OCC(O)COc3cccc4oc(C(=O)O)cc(=O)c34)cccc2o1 [CROMOLYN]
EC50 [8]: 8000 nM
EC50 [9]: 58000 nM
EC50 [7]: 4000 nM

CN(C)c1c(NC(=O)C(=O)O)cc(C#N)cc1NC(=O)C(=O)O
EC50 [3]: 9160 nM

O=C(O)C(=O)Nc1cc(C(F)(F)F)cc(NC(=O)C(=O)O)c1Cl
EC50 [3]: 55.8 nM

O=C(O)C(=O)Nc1cc(NC(=O)C(=O)O)cc(C(F)(F)F)c1
EC50 [3]: 12.4 nM

O=C(Nc1cc(C(F)(F)F)cc(NC(=O)C(=O)OC2CC2)c1Cl)C(=O)OC1CC1
EC50 [1]: 75 nM
Emax [2]: 86%
EC50 [3]: 119 nM

O=C(O)C(=O)Nc1cc(Br)cc(NC(=O)C(=O)O)c1Cl
EC50 [1]: 25.8 nM
EC50 [10]: 34.6 nM
Emax [2]: 106%
EC50 [3]: 28.1 nM

O=C(O)C(=O)Nc1cccc(NC(=O)C(=O)O)c1
EC50 [1]: 4250 nM
Emax [2]: 105%
EC50 [3]: 8060 nM

O=C(O)c1cc2ccccc2c(Cc2c(O)c(C(=O)O)cc3ccccc23)c1O [PAMOIC ACID]
EC50 [7]: > 100000 nM

COc1ccc(C(=O)Nc2cc(Br)cc3c(=O)cc(C(=O)O)oc23)cc1
EC50 [7]: 1400 nM

O=C(O)C(=O)Nc1cc(C(=O)O)cc(NC(=O)C(=O)O)c1Cl
EC50 [1]: 125 nM
Emax [2]: 75%
EC50 [3]: 5300 nM

CCCOc1ccccc1-c1nc2[nH]nnc2c(=O)[nH]1 [ZAPRINAST]
EC50 [9]: 1000 nM
EC50 [7]: 100 nM

CCOC(=O)C(=O)Nc1cc(C(F)(F)F)cc(NC(=O)C(=O)OCC)c1Cl
Stability [11]: Unstable
Stability [12]: Unstable
EC50 [3]: 63.7 nM

Cc1c(NC(=O)C(=O)O)cc(C(=O)O)cc1NC(=O)C(=O)O
EC50 [3]: > 10000 nM

Cc1cc(NC(=O)C(=O)O)c(Cl)c(NC(=O)C(=O)O)c1
EC50 [3]: 69.1 nM

COC(=O)C(=O)Nc1cc(C(F)(F)F)cc(NC(=O)C(=O)OC)c1Cl
EC50 [3]: 27.2 nM

O=C(Nc1cc(C(F)(F)F)cc(NC(=O)C(=O)OC2CCCCC2)c1Cl)C(=O)OC1CCCCC1
EC50 [3]: 61 nM

COc1c(NC(=O)C(=O)O)cc(C#N)cc1NC(=O)C(=O)O
EC50 [3]: 3110 nM

N#Cc1cc(NC(=O)C(=O)O)c(Cl)c(NC(=O)C(=O)O)c1 [LODOXAMIDE]
EC50 [1]: 41.1 nM
EC50 [8]: 4 nM
EC50 [10]: 21.5 nM
EC50 [7]: 13 nM
EC50 [3]: 422 nM

CCOC(=O)C(=O)Nc1cc(C(=O)OCC(C)C)cc(NC(=O)C(=O)OCC)c1Cl
EC50 [3]: 20.9 nM

O=C(Nc1cc(C(F)(F)F)cc(NC(=O)C(=O)OC2CCCC2)c1Cl)C(=O)OC1CCCC1
EC50 [1]: 1040 nM
Emax [2]: 91%
EC50 [3]: 126 nM
